In patent publication US7850948B2, “Radiohalogenated benzamide derivatives and their use in tumor diagnosis and tumor therapy” (Bayer Schering Pharma AG, priority 2004, dated 2010):

What was measured:
[1] = test system: B16/F1 tumor-bearing C57BL6 mice; test: Tissue concentration of radioiodinated benzamides in the C57BL6-B16/F1 mouse model (organ distribution and tumor accumulation); format: in vivo; details: for Blood tissue concentration / Liver tissue concentration / Tumor tissue concentration: n = 3
Method: (§1) After synthesis and purification, the compounds according to the invention are dissolved in a physiologically compatible medium and kept ready for injection. Organ distribution and tumor accumulation experiments were performed in B16/F1 tumor-bearing C57BL6 mice, and SK-Mel-3 tumor-bearing NMRI nude mice (15-22 g).
(§2) Murine B16/F1 and human SK-Mel-3 cells were ordered from ATCC. B16/F1 cells (0.5×10^6) are washed in buffer (preferably phosphate buffer), suspended and inoculated subcutaneously into C57BL6 mice, 100 μl, in the right rear flanks. Sk-Mel-3 cells (5×10^6) are washed in buffer and then inoculated subcutaneously into NMRI mice in Matrigel® (100 μl) in the right side of the trunk. After about 8-10 days, the animals develop palpable tumors with a surface area of about 30 mm^2. The distribution studies are performed after intravenous caudal vein administration of 3.7-5.5 MBq of the substances according to the invention in 50-100 μl of volume. At certain times after administration, the animals are sacrificed, organs and tumors are removed, optionally dabbed dry, weighed and measured for radioactive content (γ measurement) in a calibrator with the corresponding isotope standard. The results are depicted as % of the injected dose (ID)/g of tissue (Table 1).

[2] = test system: SK-Mel-3 tumor-bearing NMRI nude mice; test: Tumor accumulation in the NMRI-SK-Me13 human xenograft mouse model; format: in vivo; details: after 96 hours
Method: as §1, §2

thyroid gland = test: Thyroid gland accumulation as indication of dehalogenation in vivo
Text: Another drawback of the most similar compounds of the prior art is that the compounds of Eisenhut et al. dehalogenate more quickly in the body than the compounds according to the invention.
The thyroid gland accumulation of BA40 and BA42, an indication of dehalogenation in vivo, is increased by a factor of 10-15 compared to the compounds according to the invention.

Lipophilicity = format: physicochemical; details: in words
[3] = 1 hour after intravenous administration
[4] = 5 hours after intravenous administration
[5] = 24 hours after intravenous administration
[6] = 6 h after intravenous administration

SMILES | Blood tissue concentration [1, 3] | Liver tissue concentration [1, 3] | Tumor tissue concentration [1, 3] | Blood tissue concentration [1, 4] | Liver tissue concentration [1, 4] | Tumor tissue concentration [1, 4] | Blood tissue concentration [1, 5] | Liver tissue concentration [1, 5] | Tumor tissue concentration [1, 5] | Liver concentration compared with BA42 ([1]; after 6 and 24 hours, in words) | Blood accumulation compared with the closest prior art (compound of Eisenhut et al. with NH-Ac) ([1]; in words) | Retardation in the melanoma tissue ([1]; in words) | Stability of the bonded radioisotope I-131 (dehalogenation in vivo) (thyroid gland) | Blood tissue concentration [1, 6] | Liver tissue concentration [1, 6] | Tumor tissue concentration [1, 6] | further results
CCN(CC)CCNC(=O)c1cc(I)c(NC(=O)c2ccc3c(c2)OCO3)cc1OC [BA52, Benzo[1,3]dioxole-5-carboxylic acid [4-(2-diethylamino-ethylcarbamoyl)-2-iodo-5-methoxy-phenyl]-amide] | 1.46 % Injected Dose (ID)/g of Tissue | 19.11 % Injected Dose (ID)/g of Tissue | 14.83 % Injected Dose (ID)/g of Tissue | 0.69 % Injected Dose (ID)/g of Tissue | 6.53 % Injected Dose (ID)/g of Tissue | 22.69 % Injected Dose (ID)/g of Tissue | 0.05 % Injected Dose (ID)/g of Tissue | 0.49 % Injected Dose (ID)/g of Tissue | 18.82 % Injected Dose (ID)/g of Tissue | considerably lower | considerably less | extended retardation | more stable |  |  |  | Blood accumulation compared with BA42 ([1]; after 6 and 24 hours, in words): considerably lower; Retention in the tumor compared with BA40 and BA42 ([1]; in words): considerably longer; Tumor concentration compared with BA40 and BA42 ([1]; in words): comparable; Accumulation in the tumor [2]: at least 13 % of the injected dose per gram tissue; Lipophilicity compared with the prior art compounds (Lipophilicity): higher lipophilicity
CCN(CC)CCNC(=O)c1cc(I)c(NC(=O)c2ccccc2)cc1OC [BA91] | 1.06 % Injected Dose (ID)/g of Tissue | 12.68 % Injected Dose (ID)/g of Tissue | 9.68 % Injected Dose (ID)/g of Tissue |  |  |  | 0.22 % Injected Dose (ID)/g of Tissue | 0.76 % Injected Dose (ID)/g of Tissue | 13.83 % Injected Dose (ID)/g of Tissue | considerably lower | considerably less |  | more stable | 0.97 % Injected Dose (ID)/g of Tissue | 3.63 % Injected Dose (ID)/g of Tissue | 16.72 % Injected Dose (ID)/g of Tissue | 
CCN(CC)CCNC(=O)c1cc(I)c(NC(=O)c2ccc(Cl)cc2)cc1OC [BA93] | 1.30 % Injected Dose (ID)/g of Tissue | 13.71 % Injected Dose (ID)/g of Tissue | 10.73 % Injected Dose (ID)/g of Tissue |  |  |  | 0.22 % Injected Dose (ID)/g of Tissue | 1.18 % Injected Dose (ID)/g of Tissue | 23.46 % Injected Dose (ID)/g of Tissue | considerably lower | considerably less | extended retardation | more stable | 0.82 % Injected Dose (ID)/g of Tissue | 5.81 % Injected Dose (ID)/g of Tissue | 21.67 % Injected Dose (ID)/g of Tissue | 
CCN(CC)CCNC(=O)c1cc(I)c(NC(=O)c2ccc(OC)cc2)cc1OC [BA95] | 1.26 % Injected Dose (ID)/g of Tissue | 16.35 % Injected Dose (ID)/g of Tissue | 17.45 % Injected Dose (ID)/g of Tissue | 0.76 % Injected Dose (ID)/g of Tissue | 8.54 % Injected Dose (ID)/g of Tissue | 14.83 % Injected Dose (ID)/g of Tissue | 0.07 % Injected Dose (ID)/g of Tissue | 0.75 % Injected Dose (ID)/g of Tissue | 29.69 % Injected Dose (ID)/g of Tissue | considerably lower | considerably less | extended retardation | more stable |  |  |  | 
CCN(CC)CCNC(=O)c1cc(I)c(NC(=O)c2ccc(F)cc2)cc1OC [BA100] | 1.21 % Injected Dose (ID)/g of Tissue | 15.49 % Injected Dose (ID)/g of Tissue | 25.51 % Injected Dose (ID)/g of Tissue |  |  |  | 0.07 % Injected Dose (ID)/g of Tissue | 0.76 % Injected Dose (ID)/g of Tissue | 31.66 % Injected Dose (ID)/g of Tissue | considerably lower | considerably less | extended retardation | more stable | 0.70 % Injected Dose (ID)/g of Tissue | 4.64 % Injected Dose (ID)/g of Tissue | 28.10 % Injected Dose (ID)/g of Tissue | 
